Experimental findings from patent EP0079167A1, “A carbapenem compound, preparation and use” (BEECHAM GROUP PLC, priority 1981, dated 1983) are described below.

The subject of one data set is E. coli E96R+. Briefly: Antibacterial activity in vivo against experimental mouse infection. The note with it: Escherichia coli, read-out: CD50. The procedure: (§1) CD50 mg/kg (total dose) - Compounds dosed at 1 and 5 hours past infection.
The next data set deals with Staph. aureus Smith. The data set is described as above. The note with it: Staphylococcus aureus; mouse infection with Staph. aureus Smith; total dose; dosed at 1 and 5 hours past infection; read-out: CD50 (the source's name). The procedure: as §1
A further data set deals with Klebsiella aerogenes. Briefly: Antibacterial activity in vitro (MIC). In kind it is cell-based.
The subject of another data set is Staphylococcus aureus. Briefly: Antibacterial activity in vitro (MIC). It counts as cell-based.
Data set [1] in a line: Tissue stability in mouse kidney homogenate (HPLC). It counts as in vitro ADME. The note with it: 37°C, stability relative to MM13902 taken as standard (1.0), values >1.0 = fold increase in stability. The procedure:
(§2) A preparation of 2% mouse kidney homogenate was mixed with equal volumes of a 200 µg/ml solution of the antibiotic to be tested. The stability of the antibiotic at 37 °C was studied by removal of aliquots and subjecting them to a high pressure liquid chromatographic analysis. The values are given in figures relative to that obtained for MM13902 of U.K. Patent No. 1489235. The values are given in figures relative to that obtained for MM13902 which is taken as standard (1.0). Values greater than 1.0 reflect the fold increase in stability relative to MM13902.

A further data set deals with Escherichia coli. Briefly: Antibacterial activity in vitro (MIC). It counts as cell-based.
Data set [2] can be described thus: Tissue stability in human kidney (HPLC). It counts as in vitro ADME. The note with it: stability relative to MM13902 taken as standard (1.0), values >1.0 = fold increase in stability. The procedure: as §2
Where [3] appears, read: Klebsiella aerogenes VA2R+ (printed Va2R+ for Compound B).
Setting [4] is: Escherichia coli Ba78R+, read-out: MIC.
The mark [5] stands for this setting: Escherichia coli JT4R+, read-out: MIC.

By MIC is commonly meant the lowest concentration found to suppress growth.

Converted amounts (≈) assume the structure as drawn. Like-named read-outs stand apart in the source and are kept apart here. Some results are limits rather than exact numbers.

Consider `C[C@H](O)[C@@H]1C(=O)N2C(C(=O)O)=C(S/C=C\C(=O)OCCN)C[C@H]12` [Compound A], for which the ED50 was 66 mg/kg in the data set with E. coli E96R+ and 4.5 mg/kg with Staph. aureus Smith. Further, the MIC against Klebsiella aerogenes (Klebsiella aerogenes 185R+) was 3.1 µg/mL (≈ 9.05 µM); in the data set with Klebsiella aerogenes (Klebsiella aerogenes 192R+), 6.2 µg/mL (≈ 18.1 µM); against Klebsiella aerogenes (Klebsiella aerogenes Ba95R+) it was 6.2 µg/mL (≈ 18.1 µM); with Klebsiella aerogenes (setting [3]) it was 25 µg/mL (≈ 73 µM); against Staphylococcus aureus (ATCC25923, Staphylococcus aureus ATCC 25923) it was 0.1 µg/mL (≈ 0.292 µM); against Staphylococcus aureus (Staphylococcus aureus 68/8484), 0.2 µg/mL (≈ 0.584 µM). Moreover, the MIC in the data set on Staphylococcus aureus (Staphylococcus aureus 150+) was determined as 0.2 µg/mL (≈ 0.584 µM); against Staphylococcus aureus (Staphylococcus aureus MB9+), 0.2 µg/mL (≈ 0.584 µM); in the data set with Staphylococcus aureus (Staphylococcus aureus N36MR), 0.4 µg/mL (≈ 1.17 µM); against Staphylococcus aureus (Staphylococcus aureus N71MR), 0.8 µg/mL (≈ 2.34 µM); against Staphylococcus aureus (Staphylococcus aureus Smith), 0.2 µg/mL (≈ 0.584 µM); against Staphylococcus aureus (Staphylococcus aureus T71+), 0.1 µg/mL (≈ 0.292 µM). Moreover, the MIC was found to be 0.2 µg/mL (≈ 0.584 µM) with Staphylococcus aureus (Staphylococcus aureus T100); 0.8 µg/mL (≈ 2.34 µM) against Escherichia coli; 1.6 µg/mL (≈ 4.67 µM) in the data set on Escherichia coli (setting [4]); 6.2 µg/mL (≈ 18.1 µM) in the data set on Escherichia coli (setting [5]); 6.2 µg/mL (≈ 18.1 µM) in the data set on Escherichia coli (Escherichia coli JT20R+, read-out: MIC). Moreover, the entries for the “Tissue Stability Values” in data set [1] and in data set [2] were 1.3 and 1.2, respectively.

Consider `C[C@@H](O)[C@H]1C(=O)N2C(C(=O)O)=C(S/C=C\C(=O)OCCN)C[C@H]12` [Compound B, (5R.6S)-3-[(Z)-2-(2-aminoethyloxycarbonyl)ethenylthio]-6-[(R)-1-hydroxyethyl]-7-oxo-1-azabicyclo[3.2.0]hept-2-ene-2-carboxylic acid], for which the figures for the ED50 in the data set with E. coli E96R+ and in the data set on Staph. aureus Smith were 13 mg/kg and below 0.4 mg/kg, respectively. Moreover, the MIC turned out to be 0.4 µg/mL (≈ 1.17 µM) in the data set on Klebsiella aerogenes (Klebsiella aerogenes Ba95R+); 0.2 µg/mL (≈ 0.584 µM) against Klebsiella aerogenes (Klebsiella aerogenes Du185R); 0.2 µg/mL (≈ 0.584 µM) against Klebsiella aerogenes (Klebsiella aerogenes Du192R); 0.4 µg/mL (≈ 1.17 µM) against Klebsiella aerogenes (setting [3]); 0.4 µg/mL (≈ 1.17 µM) with Staphylococcus aureus (Staphylococcus aureus MANSTK 33269); 0.1 µg/mL (≈ 0.292 µM) against Staphylococcus aureus (Staphylococcus aureus T2p-). Further, the MIC stood at 0.1 µg/mL (≈ 0.292 µM) against Staphylococcus aureus (Staphylococcus aureus T97p+); 0.02 µg/mL (≈ 0.0584 µM) in the data set with Staphylococcus aureus (Staphylococcus aureus T100p-); 0.05 µg/mL (≈ 0.146 µM) in the data set on Staphylococcus aureus (Staphylococcus aureus T118p+); 0.02 µg/mL (≈ 0.0584 µM) with Staphylococcus aureus (Staphylococcus aureus T120p-); 0.1 µg/mL (≈ 0.292 µM) with Escherichia coli (setting [4]); 0.1 µg/mL (≈ 0.292 µM) in the data set with Escherichia coli (setting [5]). Besides, the MIC came out at 0.2 µg/mL (≈ 0.584 µM) with Escherichia coli (Escherichia coli JT56R+, read-out: MIC) and 0.2 µg/mL (≈ 0.584 µM) with Escherichia coli (Escherichia coli JT177R, read-out: MIC). The “Tissue Stability Values” in data set [1] came to 2.4; in data set [2], 2.2.

As for `C[C@H](O)[C@H]1C(=O)N2C(C(=O)O)=C(S/C=C\C(=O)OCCN)C[C@H]12` [Compound C], the minimum inhibitory concentration (MIC) was 3.1 µg/mL (≈ 9.05 µM) against Klebsiella aerogenes (Klebsiella aerogenes A); 6.2 µg/mL (≈ 18.1 µM) in the data set with Staphylococcus aureus (Staphylococcus aureus 1517); 0.4 µg/mL (≈ 1.17 µM) against Staphylococcus aureus (Staphylococcus aureus Russell); 3.1 µg/mL (≈ 9.05 µM) in the data set with Escherichia coli (Escherichia coli JT39, read-out: MIC).

With `CC(=O)N/C=C/SC1=C(C(=O)O)N2C(=O)[C@@H]([C@H](C)OS(=O)(=O)O)[C@H]2C1` [MM13902], the “Tissue Stability Values” in data set [1] and in data set [2] was 1.0 in each case.
